Results published in paper PMC11855827, “High-Throughput Screening of Five Compound Libraries for Anthelmintic Activity and Toxicity Leads to the Discovery of Two Flavonoid Compounds” (International Journal of Molecular Sciences, 2025).
Several values for one entry are separate records, joined by “and”; a condition that tells them apart may be missing. Identical values can stand only once. Like-named read-outs stand apart in the source and are kept apart here.

System: C. elegans
[1] = Table S2, C. elegans SS assay, 110 μM, averages of 4 data points
[2] = Table S2, C. elegans SS assay, 110 μM, 24 h, averages of 4 data points

SMILES | Percentage of motility inhibition 0 h [1] | Percentage of motility inhibition 24 h [2] | Percentage of motility inhibition 24 h (110 µM)
COc1cc2c(cc1O)C1Cc3ccc(OC)c(O)c3C[N+]1(C)CC2.[Cl-] (centres unmarked) [Cyclanoline (chloride)] | 7% | 12% | –
CCC(C)C1NC(=O)C(C)NC1=O (centres unmarked) [Cyclo(Ile‐Ala)] | 16% | 22% | –
CC(C)(O)[C@@H]1CC[C@](C)([C@H]2[C@@H](O)C[C@@]3(C)[C@@H]4C[C@H](O)[C@H]5C(C)(C)[C@@H](O)CC[C@@]56C[C@@]46CC[C@]23C)O1 [Cycloastragenol] | 8% | 31% | –
CC(C)(O)[C@H]1CC[C@@](C)([C@H]2[C@@H](O)C[C@@]3(C)[C@@H]4C[C@H](O)[C@H]5C(C)(C)[C@@H](O)CC[C@@]56C[C@@]46CC[C@]23C)O1 [Cyclogalegenin] | 22% | 9% | –
CN[C@@H](C)[C@H]1[C@H](O)C[C@@]2(C)[C@@H]3CC[C@H]4C(C)(C)[C@@H](NC)CC[C@@]45C[C@@]35CC[C@]12C [Cyclovirobuxine D] | 20% | 0% | –
O=c1cc(-c2ccc(O)c(O)c2)oc2cc(O[C@@H]3O[C@H](CO)[C@@H](O)[C@H](O)[C@H]3O)cc(O)c12 [Cynaroside] | 20% | 0% | –
Cl.NCCS [Cysteamine (hydrochloride)] | 23% | 6% | –
O=c1cccc2n1C[C@@H]1CNC[C@H]2C1 [Cytisinicline] | – | – | 0% and 3%
O=C(CO)[C@@H](O)[C@H](O)[C@H](O)CO [D-Fructose] | – | 15% | –
CC(C)(CO)[C@@H](O)C(=O)NCCC(=O)[O-].CC(C)(CO)[C@@H](O)C(=O)NCCC(=O)[O-].[Ca+2] [D-Pantothenic acid (hemicalcium salt)] | 48% | 1% | –
CC(C)(CO)[C@@H](O)C(=O)NCCC(=O)[O-].[Na+] [D-Pantothenic acid (sodium)] | 1% | 4% | –
CC(=O)Oc1c(C)c(C)c2c(c1C)CCC(C)(CCC[C@H](C)CCC[C@H](C)CCCC(C)C)O2 (stereo partly drawn) [D-α-Tocopherol acetate] | 7% | 22% | –
CCN(CC)C(=O)c1cccc(C)c1 [DEET] | 59% | 25% | –
COc1ccc(CC2c3cc(OC)c(OC)cc3CCN2C)cc1OC (stereo not drawn) [DL‐Laudanosine] | 7% | 12% | –
COC(=O)N[C@H](C(=O)N1CCC[C@H]1c1ncc(-c2ccc(-c3ccc(-c4cnc([C@@H]5CCCN5C(=O)[C@@H](NC(=O)OC)C(C)C)[nH]4)cc3)cc2)[nH]1)C(C)C.Cl.Cl [Daclatasvir (dihydrochloride)] | 39% | 2% | –
O=c1c(-c2ccc(O)cc2)coc2cc(O[C@@H]3O[C@H](CO)[C@@H](O)[C@H](O)[C@H]3O)ccc12 [Daidzin] | 47% and 26% | – | –
CC(C)=CC/C=C(\C)[C@H]1CC[C@]2(C)[C@@H]1[C@H](O)C[C@@H]1[C@@]3(C)C[C@@H](O)[C@H](O[C@@H]4O[C@H](CO)[C@@H](O)[C@H](O)[C@H]4O[C@@H]4O[C@H](CO)[C@@H](O)[C@H](O)[C@H]4O)C(C)(C)[C@@H]3CC[C@]12C [Damulin A] | 5% | 0% | –
CN1C[C@@H]2C[C@H]1CN2c1cc2c(cc1F)c(=O)c(C(=O)O)cn2C1CC1.CS(=O)(=O)O [Danofloxacin (mesylate)] | 0% | 15% | –
CC(C)CN(C[C@@H](O)[C@H](Cc1ccccc1)NC(=O)O[C@H]1CO[C@H]2OCC[C@H]21)S(=O)(=O)c1ccc(N)cc1.CCO [Darunavir (Ethanolate)] | 14% | 10% | –
COc1cc2c(cc1O)[C@@H](Cc1ccc(O)c(Oc3ccc(C[C@@H]4c5cc(OC)c(OC)cc5CCN4C)cc3)c1)N(C)CC2 [Daurisoline] | 23% | 12% | –
O=C(O)C1=CO[C@@H](O[C@@H]2O[C@H](CO)[C@@H](O)[C@H](O)[C@H]2O)[C@@H]2C(CO)=C[C@H](O)[C@H]12 [Deacetylasperulosidic Acid] | 0% | 8% | –
C[C@@H]1O[C@@H](O[C@H]2[C@H](OC(=O)[C@]34CCC(C)(C)C[C@H]3C3=CC[C@@H]5[C@@]6(C)C[C@H](O)[C@H](O[C@@H]7O[C@H](CO)[C@@H](O)[C@H](O)[C@H]7O)C(CO)(CO)[C@@H]6CC[C@@]5(C)[C@]3(C)C[C@H]4O)OC[C@H](O)[C@@H]2O)[C@H](O)[C@H](O)[C@H]1O[C@@H]1OC[C@@H](O)[C@H](O)[C@H]1O [Deapioplatycodin D] | 12% | 0% | –

SMILES | Percentage of motility inhibition 0 h [1] | Percentage of motility inhibition 24 h [2] | Percentage of motility inhibition 24 h (110 µM)
C=C1CC[C@@H]2[C@](C)(COC(=O)CCC(=O)O)[C@H](OC(=O)CCC(=O)O)CC[C@@]2(C)[C@@H]1/C=C/C1=CCOC1=O [Dehydroandrographolide succinate] | 7% and 0% | – | –
C=C1CC[C@@H]2[C@](C)(CO)[C@H](O)CC[C@@]2(C)[C@@H]1/C=C/C1=CCOC1=O [Dehydroandrographolide] | 0% and 4% | 7% and 9% | –
COc1cc2c(cc1OC)-c1c(C)c3ccc(OC)c(OC)c3c[n+]1CC2.[Cl-] [Dehydrocorydaline (chloride)] | 0% | 0% | –
COc1cc2c(cc1OC)-c1c(C)c3ccc(OC)c(OC)c3c[n+]1CC2.[OH-] [Dehydrocorydaline (hydroxyl)] | 2% | 0% | –
COc1cc2c(cc1OC)-c1c(C)c3ccc(OC)c(OC)c3c[n+]1CC2.O=[N+]([O-])[O-] [Dehydrocorydaline (nitrate)] | 5% | 0% | –
C=C(CC[C@@H](C(=O)O)[C@H]1CC[C@@]2(C)C3=CC[C@H]4C(C)(C)[C@@H](OC(C)=O)CC[C@]4(C)C3=CC[C@]12C)C(C)C [Dehydroeburicoic acid monoacetate] | 20% | 24% | –
CN1C2=C3N=c4ccccc4=C3CCN2C(=O)c2ccccc21.Cl [Dehydroevodiamine (hydrochloride)] | 8% | 1% | –
C=C(CCC(C(=O)O)[C@H]1[C@H](O)C[C@@]2(C)C3=CC[C@H]4C(C)(C)[C@@H](OC(C)=O)CC[C@]4(C)C3=CC[C@]12C)C(C)C (some centres unmarked) [Dehydropachymic acid] | 29% | 35% | –
CC(C)Nc1cccnc1N1CCN(C(=O)c2cc3cc(NS(C)(=O)=O)ccc3[nH]2)CC1.CS(=O)(=O)O [Delavirdine (mesylate)] | 22% | 16% | –
CN1CCN(c2ccc(N3C[C@H](CO)OC3=O)cc2F)C=N1 [Delpazolid] | 2% | 3% | –
CN(C)[C@@H]1C(O)=C(C(N)=O)C(=O)[C@@]2(O)C(O)=C3C(=O)c4c(O)ccc(Cl)c4[C@@H](O)[C@H]3C[C@@H]12.Cl [Demeclocycline (hydrochloride)] | 17% | 12% | –
C/C(=C\C=C\[C@@]1(C)OC(=O)[C@]23CC=C(C(=O)O)CC[C@]2(O)[C@H]1CC3)C(=O)O [Demethoxydeacetoxypseudolaric acid B] | 0% | 0% | –
COc1ccc2cc3[n+](cc2c1OC)CCc1cc(O)c(O)cc1-3.[Cl-] [Demethyleneberberine (chloride)] | 0% | 13% | –
C[C@@]1(C(=O)O)CC[C@]2(C)CC[C@]3(C)C4=CC(=O)c5c(cc(O)c(O)c5C=O)[C@]4(C)CC[C@@]3(C)[C@@H]2C1 [Demethylzeylasteral] | 0% | 36% | –
CC(C)[C@@H]1[C@H]2OC(=O)[C@@H]1[C@@H]1CC[C@@H]3CN(C)[C@H]2[C@@]31C [Dendrobine] | 0% | 3% | –
C[C@H](CCC(=O)[O-])[C@H]1CC[C@H]2[C@@H]3CC[C@@H]4C[C@H](O)CC[C@]4(C)[C@H]3C[C@H](O)[C@]12C.[Na+] [Deoxycholic acid sodium salt] | 0% | 26% | –
C=C(C)C(=O)O[C@H]1CC2=C[C@@H](C/C(C)=C/[C@H]3OC(=O)C(=C)[C@H]13)OC2=O [Deoxyelephantopin] | 0% | 9% | –
CC1(C)OC2CC(=O)OCC23C1CC(=O)C1(C)C2=CC(=O)OC(c4ccoc4)C2(C)CCC13 (centres unmarked) [Deoxylimonin] | 9% | 50% | –
CC1(C)[C@@H](O[C@H]2O[C@H](C(=O)O)[C@@H](O)[C@H](O)[C@H]2O[C@@H]2O[C@H](C(=O)O)[C@@H](O)[C@H](O)[C@H]2O)CC[C@]2(C)[C@H]3C(=O)C=C4[C@@H]5C[C@@](C)(C(=O)O)CC[C@]5(C)CC[C@@]4(C)[C@]3(C)CC[C@@H]12.N.N [Diammonium Glycyrrhizinate] | – | 4% and 11% | –
COc1cc(-c2coc3cc4c(c(O)c3c2=O)OCO4)cc(O)c1OC [Dichotomitin] | 34% | 22% | –
COc1ccc([C@@H]2CC(=O)c3c(O)cc(O[C@@H]4O[C@H](CO[C@@H]5O[C@@H](C)[C@H](O)[C@@H](O)[C@H]5O)[C@@H](O)[C@H](O)[C@H]4O)cc3O2)cc1 [Didymin] | 1% | 6% | –
CCN(CC)C(=O)N1CCN(C)CC1.O=C(O)CC(O)(CC(=O)O)C(=O)O [Diethylcarbamazine (citrate)] | 13% | 17% | –
